In brackets after ≈: the same amount, converted by molar mass.

Holding throughout (assay type): functional
The test system of test [1] is Lucilia cuprina. The test can be described thus: Insecticidal activity against newly hatched larvae of Lucilia cuprina assessed as survival at 450 to 5130 ppm after 24 hr.
The test system of test [2] is Eurhopalus australis. As to the kind of experiment: Insecticidal activity against larvae of Anthrenocerus australis assessed as survival after 14 days. The settings on record: 336 h, read-out: LD50 (the source's name).
Test [3] has as its system Eurhopalus australis. The test can be described thus: Antifeedant activity against larvae of Anthrenocerus australis assessed as amount of food intake at 63 ppm after 14 days (reference value: 55.5 mg).
The test system of test [4] is Tineola bisselliella. As to the kind of experiment: Insecticidal activity against larvae of Tineola bisselliella assessed as survival after 14 days. The following applies: 336 h, read-out: LD50 (the source's name).
Test [5] concerns Eurhopalus australis. The test can be described thus: Insecticidal activity against larvae of Anthrenocerus australis assessed as survival at 125 to 4000 ppm after 14 days.
The subject of test [6] is Tineola bisselliella. As to the kind of experiment: Insecticidal activity against larvae of Tineola bisselliella assessed as survival at 430 to 4500 ppm after 14 days.
In test [7] the test system is Lucilia cuprina. The test can be described thus: Insecticidal activity against newly hatched larvae of Lucilia cuprina assessed as mortality after 24 hr. The following applies: read-out: LD50 (the source's name).

For `C/C=C1\[C@H]2C=C(C)C[C@]1(N)c1ccc(=O)[nH]c1C2` [HUPERZINE A], the Activity in test [1] stood at 8%; in test [3] it was 1.5 mg; in test [5] it was 3%; in test [6], 3%. Further, the LC50 in test [2] turned out to be 110 µg/mL (≈ 454 µM); in test [4], 630 µg/mL (≈ 2600 µM); in test [7], 2380 µg/mL (≈ 9820 µM).

Source of the values: ChEMBL document CHEMBL3046058, “Insecticidal activity of huperzine A from the New Zealand clubmoss, Lycopodium varium” (2002).
